Results from PubChem BioAssay AID2060890 (Molecular Pharmacology Branch, DTP, NCI, 2025).

System: LG0703-F948-PDC complex spheroid viability
Test: Anticancer human tumor LG0703-F948-PDC patient-derived lung adenocarcinoma cell line growth inhibition [RAS]
Conditions: for viability, T/C: stronger effect = lower value; active = viability on the fitted dose curve at most 10% of control; inactive = the rest
Outline: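 Tumour cells grown as complex spheroids with HUVEC endothelial cells and mesenchymal stem cells, treated with RAS pathway inhibitor combinations. Each agent spans half-log steps from near clinical Cmax, or 10 microM where Cmax is unknown.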

[1] = curve of first compound, second compound 0.000949 µM
[2] = curve of first compound, second compound 0.003 µM
[3] = curve of first compound, second compound 0.00949 µM
[4] = curve of first compound, second compound 0.03 µM
[5] = curve of first compound, second compound 0.0949 µM
[6] = curve of first compound, second compound 0.3 µM
[7] = second compound 0.000949 µM, first compound 0.0316 µM
[8] = second compound 0.000949 µM, first compound 0.1 µM
[9] = second compound 0.000949 µM, first compound 0.316 µM
[10] = second compound 0.000949 µM, first compound 1 µM
[11] = second compound 0.000949 µM, first compound 3.16 µM
[12] = second compound 0.000949 µM, first compound 10 µM
[13] = second compound 0.003 µM, first compound 0.0316 µM
[14] = second compound 0.003 µM, first compound 0.1 µM
[15] = second compound 0.003 µM, first compound 0.316 µM
[16] = second compound 0.003 µM, first compound 1 µM
[17] = second compound 0.003 µM, first compound 3.16 µM
[18] = second compound 0.003 µM, first compound 10 µM
[19] = second compound 0.00949 µM, first compound 0.0316 µM
[20] = second compound 0.00949 µM, first compound 0.1 µM
[21] = second compound 0.00949 µM, first compound 0.316 µM
[22] = second compound 0.00949 µM, first compound 1 µM
[23] = second compound 0.00949 µM, first compound 3.16 µM
[24] = second compound 0.00949 µM, first compound 10 µM
[25] = second compound 0.03 µM, first compound 0.0316 µM
[26] = second compound 0.03 µM, first compound 0.1 µM
[27] = second compound 0.03 µM, first compound 0.316 µM
[28] = second compound 0.03 µM, first compound 1 µM
[29] = second compound 0.03 µM, first compound 3.16 µM
[30] = second compound 0.03 µM, first compound 10 µM
[31] = second compound 0.0949 µM, first compound 0.0316 µM
[32] = second compound 0.0949 µM, first compound 0.1 µM
[33] = second compound 0.0949 µM, first compound 0.316 µM
[34] = second compound 0.0949 µM, first compound 1 µM
[35] = second compound 0.0949 µM, first compound 3.16 µM
[36] = second compound 0.0949 µM, first compound 10 µM
[37] = second compound 0.3 µM, first compound 0.0316 µM
[38] = second compound 0.3 µM, first compound 0.1 µM
[39] = second compound 0.3 µM, first compound 0.316 µM
[40] = second compound 0.3 µM, first compound 1 µM
[41] = second compound 0.3 µM, first compound 3.16 µM
[42] = second compound 0.3 µM, first compound 10 µM
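Note: spheroids exposed to agents for 7 days.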
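Throughout, for viability, T/C: 100% = DMSO vehicle wells.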

CC(C)NCC(C(=O)N1CCN(c2ncnc3c2C(C)CC3O)CC1)c1ccc(Cl)cc1 (centres undefined) + CCn1c(-c2cccnc2C(C)OC)c2c3cc(ccc31)N1CCOC(CC(NC(=O)C(C(C)C)N(C)C(=O)C3(F)CCN(C(=O)C#CC(C)(C)N(C)C)CC3)C(=O)N3CCCC(N3)C(=O)OCC(C)(C)C2)C1
1800 nM: IC50 [1]
1420 nM: IC50 [4]
inactive: viability, T/C [7] 103% | viability, T/C [8] 86% | viability, T/C [9] 73.6% | viability, T/C [10] 51.9% | viability, T/C [11] 47.4% | viability, T/C [12] 35.6% | viability, T/C [13] 104% | viability, T/C [14] 79.8% | viability, T/C [15] 77.9% | viability, T/C [16] 56.3% | viability, T/C [17] 50.8% | viability, T/C [18] 38.4% | viability, T/C [19] 100% | viability, T/C [20] 98% | viability, T/C [21] 65.5% | viability, T/C [22] 49% | viability, T/C [23] 52.5% | viability, T/C [24] 39.3% | viability, T/C [25] 99.3% | viability, T/C [26] 86.4% | viability, T/C [27] 67.9% | viability, T/C [28] 53.3% | viability, T/C [29] 43.1% | viability, T/C [30] 35.1% | viability, T/C [31] 74.8% | viability, T/C [32] 66% | viability, T/C [33] 51.3% | viability, T/C [34] 42.4% | viability, T/C [35] 42.5% | viability, T/C [36] 28.9% | viability, T/C [37] 46.8% | viability, T/C [38] 38.6% | viability, T/C [39] 33.6% | viability, T/C [40] 23.8% | viability, T/C [41] 27.4% | viability, T/C [42] 15.5%
858 nM: IC50 [3]
< 31.6 nM: IC50 [6]
511 nM: IC50 [5]
2750 nM: IC50 [2]

CC(Nc1ccc2c(c1)OCCn1cc(N3C(=O)OCC3C(F)F)nc1-2)C(N)=O (centres undefined) + CCn1c(-c2cc(N3CCN(C)CC3)cnc2C(C)OC)c2c3cc(ccc31)-c1csc(n1)CC(NC(=O)C1CC1C)C(=O)N1CCCC(N1)C(=O)OCC(C)(C)C2
< 31.6 nM: IC50 [2] | IC50 [3] | IC50 [4] | IC50 [5] | IC50 [6]
active: viability, T/C [17] 8.64% | viability, T/C [18] 3.86% | viability, T/C [21] 7.46% | viability, T/C [22] 5.56% | viability, T/C [23] 4.28% | viability, T/C [24] 1.67% | viability, T/C [26] 8.93% | viability, T/C [27] 4% | viability, T/C [28] 3.07% | viability, T/C [29] 1.45% | viability, T/C [30] 1.14% | viability, T/C [31] 8.21% | viability, T/C [32] 5.47% | viability, T/C [33] 3.07% | viability, T/C [34] 2.1% | viability, T/C [35] 1.39% | viability, T/C [36] 0.7% | viability, T/C [37] 6.47% | viability, T/C [38] 4.12% | viability, T/C [39] 2.78% | viability, T/C [40] 2.27% | viability, T/C [41] 1.25% | viability, T/C [42] 0.71%
inactive: viability, T/C [7] 66.8% | viability, T/C [8] 55% | viability, T/C [9] 37.9% | viability, T/C [10] 22.5% | viability, T/C [11] 16.8% | viability, T/C [12] 8.97% | viability, T/C [13] 38.7% | viability, T/C [14] 31.1% | viability, T/C [15] 20.2% | viability, T/C [16] 12.6% | viability, T/C [19] 20.7% | viability, T/C [20] 16.5% | viability, T/C [25] 10.8%
136 nM: IC50 [1]

C=CC(=O)N1CCN(c2nc(OCC3CCCN3C)nc3c(F)c(-c4nc(N)cc(C)c4C(F)(F)F)c(Cl)cc23)C(C)C1 (centres undefined) + CCn1c(-c2cccnc2C(C)OC)c2c3cc(ccc31)N1CCOC(CC(NC(=O)C(C(C)C)N(C)C(=O)C3(F)CCN(C(=O)C#CC(C)(C)N(C)C)CC3)C(=O)N3CCCC(N3)C(=O)OCC(C)(C)C2)C1
inactive: viability, T/C (second compound 0.000949 µM, first compound 0.00316 µM) 91.1% | viability, T/C (second compound 0.000949 µM, first compound 0.01 µM) 92.5% | viability, T/C [7] 90.4% | viability, T/C [8] 88% | viability, T/C [9] 89.5% | viability, T/C [10] 116% | viability, T/C (second compound 0.003 µM, first compound 0.00316 µM) 95.5% | viability, T/C (second compound 0.003 µM, first compound 0.01 µM) 85.6% | viability, T/C [13] 99.5% | viability, T/C [14] 87.7% | viability, T/C [15] 80.7% | viability, T/C [16] 89.6% | viability, T/C (second compound 0.00949 µM, first compound 0.00316 µM) 89.6% | viability, T/C (second compound 0.00949 µM, first compound 0.01 µM) 95.1% | viability, T/C [19] 88.4% | viability, T/C [20] 99% | viability, T/C [21] 101% | viability, T/C [22] 87.3% | viability, T/C (second compound 0.03 µM, first compound 0.00316 µM) 91.1% | viability, T/C (second compound 0.03 µM, first compound 0.01 µM) 89.3% | viability, T/C [25] 78.1% | viability, T/C [26] 92.6% | viability, T/C [27] 107% | viability, T/C [28] 81.6% | viability, T/C (second compound 0.0949 µM, first compound 0.00316 µM) 78.2% | viability, T/C (second compound 0.0949 µM, first compound 0.01 µM) 79.1% | viability, T/C [31] 76.7% | viability, T/C [32] 85.3% | viability, T/C [33] 77.3% | viability, T/C [34] 77.4% | viability, T/C (second compound 0.3 µM, first compound 0.00316 µM) 51.9% | viability, T/C (second compound 0.3 µM, first compound 0.01 µM) 47.8% | viability, T/C [37] 47.7% | viability, T/C [38] 44.4% | viability, T/C [39] 59.9% | viability, T/C [40] 50.5%
< 3.16 nM: IC50 [6]
> 1000 nM: IC50 [1] | IC50 [2] | IC50 [3] | IC50 [4] | IC50 [5]

CC1(C)CCC(Nc2ncc(C(F)(F)F)c(-c3c[nH]c4c(P(C)(C)=O)c(C#N)ccc34)n2)CN1 (centres undefined)
inactive: viability, T/C (compound 0.000949 µM) 91% [middle of 4 runs] | viability, T/C (compound 0.003 µM) 76.9% [middle of 4 runs] | viability, T/C (compound 0.00949 µM) 68.7% [middle of 4 runs] | viability, T/C (compound 0.03 µM) 67.9% [middle of 4 runs] | viability, T/C (compound 0.0949 µM) 65.8% [middle of 4 runs] | viability, T/C (compound 0.3 µM) 67.9% [middle of 4 runs]
> 300 nM: IC50 (curve of compound)

CC(C)NCC(C(=O)N1CCN(c2ncnc3c2C(C)CC3O)CC1)c1ccc(Cl)cc1 (centres undefined)
inactive: viability, T/C (compound 0.1 µM) 90.6% [middle of 4 runs] | viability, T/C (compound 0.316 µM) 70.8% [middle of 4 runs] | viability, T/C (compound 1 µM) 48% [middle of 4 runs] | viability, T/C (compound 3.16 µM) 40.3% [middle of 4 runs] | viability, T/C (compound 10 µM) 32.6% [middle of 4 runs]
946 nM [middle of 4 runs]: IC50 (curve of compound)
